Test results taken from patent US5811512A, “Non-peptide peptidomimetics and related cyclic hexapeptides” (The Trustees of the University of Pennsylvania, priority 1996, dated 1998).
Where a SMILES comes first, the peptide text is derived from it. [ ]: non-standard residue; d: D form. Phe(4-F) = N[C@@H](Cc1ccc(F)cc1)C(=O)O; 1Nal = N[C@@H](Cc1cccc2ccccc12)C(=O)O; d(hPhe) = N[C@H](CCc1ccccc1)C(=O)O; Cha = N[C@@H](CC1CCCCC1)C(=O)O

Columns and labels:
[1] = target: T1, human neurokinin-1 receptor (NK1R) (Homo sapiens, UniProt P25103); assay: Substance P receptor binding: 125I-substance P displacement from human NK1R expressed in COS cells; details: for IC50: 125I-SP, COS cells expressing human NK1R, read-out: IC50 (concentration required to inhibit the binding of substance P to the human neurokinin-1 receptor by 50%)
T1 construct: the cDNA for the human NK1R was cloned into the expression vector pCDM9; expressed in transfected cells; host or cells: COS cells (transient, electroporation, vector pCDM9)
T1 sequence (P25103 whole entry): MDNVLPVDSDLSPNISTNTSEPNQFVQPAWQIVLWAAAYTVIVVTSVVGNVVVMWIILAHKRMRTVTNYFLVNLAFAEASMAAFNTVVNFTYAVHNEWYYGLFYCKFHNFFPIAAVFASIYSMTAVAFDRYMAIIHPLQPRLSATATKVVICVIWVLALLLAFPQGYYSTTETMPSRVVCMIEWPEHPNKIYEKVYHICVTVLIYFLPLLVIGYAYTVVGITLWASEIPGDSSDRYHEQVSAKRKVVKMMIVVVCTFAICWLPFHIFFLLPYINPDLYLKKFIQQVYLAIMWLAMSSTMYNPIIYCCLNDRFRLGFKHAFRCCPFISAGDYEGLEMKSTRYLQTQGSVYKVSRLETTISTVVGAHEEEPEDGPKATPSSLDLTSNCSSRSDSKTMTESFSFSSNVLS
Method: The affinity of a variety of compounds for the substance P receptor was determined employing the following procedure.
A. Receptor Expression in COS
To express the cloned human neurokinin-1 receptor (NK1R) transiently in COS, the cDNA for the human NK1R was cloned into the expression vector pCDM9 which was derived from pCDM8 (Invitrogen) by inserting the ampicillin resistance gene (nucleotide 1973 to 2964 from Bluescript SK+) into the Sac II site. Transfection of 20 μg of the plasmid DNA into 10 million COS cells was achieved by electroporation in 800 μl of the transfection buffer ([…], 1.2 mM MgCl2, 2.4 mM K2 HPO4, 0.6 mM KH2 PO4, 10 nM glucose, 10 mM HEPES pH 7.4) at 260V and 950 μF using the IBI Genezapper (IBI, New Haven, Conn.). The cells were incubated in 10% fetal calf serum, 2 mM glutamine, 100 U/ml penicillin-streptomycin, and 90% DMEM media (Gibco, Grand Island, N.Y.) in 5% CO2 at 37° C. for three days before the binding assay.
B. Assay Protocol using COS
The binding assay of human NK1R expressed in COS cells is based on the use of ^125 I-substance P (^125 I-SP, from DuPont, Boston, Mass.) as a radioactively labeled ligand which competes with unlabeled substance P or any other ligand for binding to the human NK1R. Monolayer cell cultures of COS were dissociated by the non-enzymatic solution (Specialty Media, Lavallette, N.J.) and resuspended in appropriate volume of the bind buffer (50 mM Tris pH 7.5, 5 mM MnCl2, 150 mM NaCl, 0.04 mg/ml bacitracin, 0.004 mg/ml leupeptin, 0.2 mg/ml BSA, 0.01 mM phosphoramidon) such that 200 μl of the cell suspension would give rise to about 10,000 cpm of specific ^125 I-SP binding (approximately 50,000 to 200,000 cells). In the binding assay, 200 μl of cells were added to a tube containing 20 μl of 1.5 to 2.5 nM of ^125 I-SP and 20 μl of unlabeled substance P or any other test compound. The tubes were incubated at 4° C. or at room temperature for 1 hour with gentle shaking. The bound radioactivity was separated from unbound radioactivity by GF/C filter (Brandel, Gaithersburg, Md.) which was pre-wetted with 0.1 polyethylenimine. The filter was washed with 3 ml of wash buffer (50 Tris pH 7.5, 5 mM MnCl21 150 mM NaCl) three times and its radioactivity was determined by gamma counter.
A variety of compounds were tested according to the COS cell procedure. The concentration of compound required to inhibit the binding of substance P to the human neurokinin-1 receptor by 50% was measured.

β-adrenergic receptor = assay: Radioligand displacement from AtT-20 and brain cells, β-adrenergic receptor; type: binding
SRIF receptor = SRIF receptor affinity: displacement of 125I-CGP-23996 from AtT-20 cells; type: binding
Method: The affinity of a variety of compounds for the SRIF receptor was determined by studying the displacement of ^125 I-CGP-23996 from AtT-20 cells using the method generally in accordance with Raynor and Reisine, Journal of Pharmacology and Experimental Therapeutics, 1989, 251;2, 510.

[2] = displacement of 125I-CGP-23996, AtT-20 cells

Row | Compound | IC50 (HIV-1 protease) | further results
1 | CC(C)C[C@@H]1NC(=O)[C@@H](Cc2c[nH]c3ccccc23)NC(=O)[C@H](Cc2ccccc2)NC(=O)[C@@H]2CCCN2C(=O)[C@H](Cc2ccccc2)NC(=O)[C@H]([C@@H](C)O)NC1=O [(17a), Cyclo (Phe-D-Trp-Leu-Thr-Phe-Pro)] (cyclo(FPF[dW]LT)) | 3420 nM | 
2 | C[C@@H](O)[C@@H]1NC(=O)[C@H](Cc2ccccc2)NC(=O)[C@@H](Cc2c[nH]c3ccccc23)NC(=O)[C@H](Cc2ccccc2)NC(=O)[C@@H]2CCCN2C(=O)[C@H](Cc2ccccc2)NC1=O [(17b), Cyclo (Phe-D-Trp-Phe-Thr-Phe-Pro)] (cyclo(FPF[dW]FT)) | 330 nM | 
3 | C[C@@H](O)[C@@H]1NC(=O)[C@H](Cc2ccc(O)cc2)NC(=O)[C@@H](Cc2c[nH]c3ccccc23)NC(=O)[C@H](Cc2ccccc2)NC(=O)[C@@H]2CCCN2C(=O)[C@H](Cc2ccccc2)NC1=O [(17c), Cyclo (Phe-D-Trp-Tyr-Thr-Phe-Pro)] (cyclo(FPF[dW]YT)) | 2150 nM | 
4 | C[C@@H]1NC(=O)[C@@H](Cc2c[nH]c3ccccc23)NC(=O)[C@H](Cc2ccccc2)NC(=O)[C@@H]2CCCN2C(=O)[C@H](Cc2ccccc2)NC(=O)[C@H]([C@@H](C)O)NC1=O [(17d), Cyclo (Phe-D-Trp-Ala-Thr-Phe-Pro)] (cyclo(ATFPF[dW])) | 9000 nM | 
5 | COc1ccc(C[C@@H]2NC(=O)[C@@H](Cc3c[nH]c4ccccc34)NC(=O)[C@H](Cc3ccccc3)NC(=O)[C@@H]3CCCN3C(=O)[C@H](Cc3ccccc3)NC(=O)[C@H]([C@@H](C)O)NC2=O)cc1 [(17e), Cyclo (Phe-D-Trp-p-MeO-Phe-Thr-Phe-Pro)] (cyclo(FPF[dW]Y(Me)T)) | 130 nM | 
6 | C[C@@H](O)[C@@H]1NC(=O)[C@H](Cc2ccc(F)cc2)NC(=O)[C@@H](Cc2c[nH]c3ccccc23)NC(=O)[C@H](Cc2ccccc2)NC(=O)[C@@H]2CCCN2C(=O)[C@H](Cc2ccccc2)NC1=O [(17f), Cyclo (Phe-D-Trp-p-F-Phe-Thr-Phe-Pro)] (cyclo(FPF[dW][Phe(4-F)]T)) | 37 nM | 
7 | C[C@@H](O)[C@@H]1NC(=O)[C@H](Cc2ccccc2)NC(=O)[C@@H](Cc2c[nH]c3ccccc23)NC(=O)[C@H](CO)NC(=O)[C@@H]2CCCN2C(=O)[C@H](Cc2ccccc2)NC1=O [(18a), Cyclo (Ser-D-Trp-Phe-Thr-Phe-Pro)] (cyclo(FPS[dW]FT)) | 2210 nM | 
8 | C[C@@H](O)[C@@H]1NC(=O)[C@H](Cc2ccccc2)NC(=O)[C@@H](Cc2c[nH]c3ccccc23)NC(=O)[C@H](CC(=O)O)NC(=O)[C@@H]2CCCN2C(=O)[C@H](Cc2ccccc2)NC1=O [(18b), Cyclo (Asp-D-Trp-Phe-Thr-Phe-Pro)] (cyclo(D[dW]FTFP)) | 4020 nM | 
9 | C[C@@H](O)[C@@H]1NC(=O)[C@H](Cc2ccccc2)NC(=O)[C@@H](Cc2c[nH]c3ccccc23)NC(=O)[C@H]2CCCN2C(=O)[C@@H]2CCCN2C(=O)[C@H](Cc2ccccc2)NC1=O [(18c), Cyclo (D-Pro-D-Trp-Phe-Thr-Phe-Pro)] (cyclo(FP[dP][dW]FT)) | 51 nM | 
10 | C[C@@H]1NC(=O)[C@@H]2CCCN2C(=O)[C@H](Cc2ccccc2)NC(=O)[C@H]([C@@H](C)O)NC(=O)[C@H](Cc2ccccc2)NC(=O)[C@@H](Cc2c[nH]c3ccccc23)NC1=O [(18d), Cyclo (Ala-D-Trp-Phe-Thr-Phe-Pro)] (cyclo(A[dW]FTFP)) | 2200 nM | 
11 | C[C@@H](O)[C@@H]1NC(=O)[C@H](Cc2ccccc2)NC(=O)[C@@H](Cc2c[nH]c3ccccc23)NC(=O)[C@H](Cc2c[nH]c3ccccc23)NC(=O)[C@@H]2CCCN2C(=O)[C@H](Cc2ccccc2)NC1=O [(18e), Cyclo (Trp-D-Trp-Phe-Thr-Phe-Pro)] (cyclo(FPW[dW]FT)) | 73 nM | 
12 | C[C@@H](O)[C@@H]1NC(=O)[C@H](Cc2ccccc2)NC(=O)[C@@H](Cc2c[nH]c3ccccc23)NC(=O)[C@@H](Cc2ccccc2)NC(=O)[C@@H]2CCCN2C(=O)[C@H](Cc2ccccc2)NC1=O [(18f), Cyclo (D-Phe-D-Trp-Phe-Thr-Phe-Pro)] (cyclo(FP[dF][dW]FT)) | 1120 nM | 
13 | C[C@@H](O)[C@@H]1NC(=O)[C@H](Cc2ccccc2)NC(=O)[C@@H](Cc2c[nH]c3ccccc23)NC(=O)[C@@H](CCc2ccccc2)NC(=O)[C@@H]2CCCN2C(=O)[C@H](Cc2ccccc2)NC1=O [(18g), Cyclo (D-Homo-Phe-D-Trp-Phe-Thr-Phe-Pro)] (cyclo(FP[d(hPhe)][dW]FT)) | 161 nM | 
14 | C[C@@H](O)[C@@H]1NC(=O)[C@H](Cc2ccccc2)NC(=O)[C@@H](Cc2c[nH]c3ccccc23)NC(=O)[C@H](CC2CCCCC2)NC(=O)[C@@H]2CCCN2C(=O)[C@H](Cc2ccccc2)NC1=O [(18h), Cyclo (Cha-D-Trp-Phe-Thr-Phe-Pro)] (cyclo([Cha][dW]FTFP)) | 700 nM | 
15 | C[C@@H](O)[C@@H]1NC(=O)[C@H](Cc2ccccc2)NC(=O)[C@@H](Cc2c[nH]c3ccccc23)NC(=O)[C@H](Cc2cccc3ccccc23)NC(=O)[C@@H]2CCCN2C(=O)[C@H](Cc2ccccc2)NC1=O [(18i), Cyclo (Nal-D-Trp-Phe-Thr-Phe-Pro)] (cyclo([1Nal][dW]FTFP)) | 22 nM | 
16 | CC(=O)NCCCCCOC[C@H]1O[C@@H](OCCc2cn(S(=O)(=O)c3ccccc3)c3ccccc23)[C@H](OCc2ccccc2)[C@@H](OCc2ccccc2)[C@@H]1OCc1ccccc1 [Compound 7, 2-(1-Phenylsulfonyl-indol-3yl)ethyl-6-O-(5-acetamidopentyl)-2,3,4-tri-O-benzyl-β-D-glucopyranoside] |  | IC50 [1]: 56 nM
17 | CO[C@@H]1O[C@H](COCCCCCN)[C@@H](OCc2ccccc2)[C@H](OCc2ccccc2)[C@H]1OCc1ccccc1 [Compound 8, Methyl 6-O-(5-aminopentyl)-2,3,4-tri-O-benzyl-β-D-glucopyranoside] |  | binding to substance P receptor [1]: is bound by; IC50 [1]: 840 nM; binding to β-adrenergic receptor (β-adrenergic receptor): does not bind; Binding Inhibition (β-adrenergic receptor; 125I-CYP (0.1 nM), AtT-20): 0%; binding to SRIF receptor (SRIF receptor): is bound by; IC50 (SRIF receptor; [2]): 40000 nM
18 | OC[C@@H]1C[C@H](OCc2ccccc2)[C@@H](OCc2ccccc2)[C@H](OCCc2c[nH]c3ccccc23)O1 [Compound 11, 2-Indol-3-yl-ethyl-2,3,-di-O-benzyl-4-deoxy-β-D-glucopyranoside] |  | IC50 [1]: 400 nM
19 | CO[C@@H]1O[C@H](COCCCCCNC(=O)C(F)(F)F)[C@@H](OCc2ccccc2)[C@H](OCc2ccccc2)[C@H]1OCc1ccccc1 [Compound 13, Methyl 2,3,4-tri-O-benzyl-6-O-(N-trifluoroacetyl-5-aminopentyl)-β-D-glucopyranoside] |  | IC50 [1]: 1000 nM; IC50 (affinity for the SRIF receptor) (SRIF receptor; [2]): does not bind
20 | C[C@@H](O)[C@@H]1NC(=O)[C@H](Cc2ccc(F)cc2)NC(=O)[C@@H](Cc2c[nH]c3ccccc23)NC(=O)[C@H](Cc2cccc3ccccc23)NC(=O)[C@@H]2CCCN2C(=O)[C@H](Cc2ccccc2)NC1=O [Compound (19), Cyclo (Nal-D-Trp-p-F-Phe-Thr-Phe-Pro)] (cyclo([1Nal][dW][Phe(4-F)]TFP)) | 2.8 nM | 
21 | C[C@@H](O)[C@@H]1NC(=O)[C@H](CCCCN)NC(=O)[C@@H](Cc2c[nH]c3ccccc23)NC(=O)[C@H](Cc2ccccc2)NC(=O)[C@@H]2CCCN2C(=O)[C@H](Cc2ccccc2)NC1=O [L-363,301, reference compound] (cyclo(PF[dW]KTF)) |  | IC50 (SRIF receptor; [2]): 18.7 nM
22 | CC(C)[C@@H]1NC(=O)[C@H](CCCCN)NC(=O)[C@@H](Cc2c[nH]c3ccccc23)NC(=O)[C@H](Cc2ccc(O)cc2)NC(=O)[C@H](C)N(C)C(=O)[C@H](Cc2ccccc2)NC1=O [MK 678, reference compound] |  | IC50 (SRIF receptor; [2]): 60 nM
